Assay results: US6288067A, “Prophylactic or therapeutic agents for drug-induced renal injury” (Suntory Limited, priority 1998, dated 2001)

How the values were obtained:
[1] = as reported in Japanese Patent Public Disclosure No. 25323/84; cited from earlier work
renal tissue NOS = test: Renal cortical NOS activity (3H-citrulline produced from 3H-arginine) in cyclosporin-induced renal injury rats; format: in vivo, Sprague-Dawley rats; settings: orally administered BH4, cyclosporin-treated rats
Protocol: (§1) Sprague-Dawley rats at the age of 8 to 10 weeks (supplied from Charles River) (300 g) were divided into the following three experimental groups, and examined by comparison. The animals were grown with a low-salt (0.05%) feed during the experimental period of 6 weeks, and treated for 5 weeks from the second to last weeks of the experiment as follows.
(§2) Each group was observed during the experimental period of 6 weeks. The blood pressure, renal cortical NOS activity and blood BP level were determined by the procedures described below. After 6 weeks, blood was collected from the abdominal aorta under anesthesia with phenobarbital, and then the kidney was perfused with physiological saline, then extracted and histologically examined for the effects of BH4 administration on cyclosporin-induced renal injury.
NOS activity was determined by measuring ^3 H-citrulline produced by renal tissue NOS using 3H-arginine.
(§3) Group-to-group statistic analyses were made by two-way ANOVA. In the following analyses, the significance level was p<0.05.

[2] = Biopterin (BP) level in blood by HPLC in cyclosporin-induced renal injury rats; format: in vivo, Sprague-Dawley rats; settings: average; cyclosporin 15 mg/kg/day s.c. plus BH4 dihydrochloride 10 mg/kg/day oral
Protocol: as §1, §2, §3

[3] = system: cyclosporin-induced renal injury rats; test: Histopathological findings (arteriolopathy) in renal tissue samples, HE and periodic acid-Shiff staining; format: in vivo, Sprague-Dawley rats
Protocol: as §1, §2
After collecting urine and measuring blood pressure at week 6, the animals were abdominally incised under anesthesia, bled from the abdominal aorta and perfused with physiological saline via this site. The extracted kidney was fixed in a 10% formaldehyde solution, embedded in paraffin, then sliced by a microtome into renal tissue samples of 4 μm. The samples were stained with hematoxylin/eosin (HE) and periodic acid-Shiff. The incidences of pathological findings, i.e. arteriolopathy in the rat renal tissue samples were examined by comparison.
as §3

[4] = Blood pressure by the tail-cuff method in cyclosporin-induced renal injury rats; format: in vivo, Sprague-Dawley rats; settings: until the end of observation (6 weeks); cyclosporin 15 mg/kg/day s.c.; BH4 group: plus BH4 dihydrochloride 10 mg/kg/day oral
Protocol: as §1, §2
Blood pressure was measured by the tail-cuff method at the start of the experiment and after 2, 4 and 6 weeks.
as §3

ED-1-positive cells = test: Renal histochemistry, staining with monoclonal antibody against macrophage cell membrane antigen ED-1; format: in vivo, Sprague-Dawley rats; settings: frozen renal tissues; cyclosporin 15 mg/kg/day s.c.; BH4 group: plus BH4 dihydrochloride 10 mg/kg/day oral
Protocol: as §1, §2
(§4) Sections were prepared from frozen renal tissues and stained with NADPH-diaphorase for evaluating NOS activity on the tissues. The tissues were also stained with a monoclonal antibody against the macrophage cell membrane antigen ED-1 to examine the NOS isoform.

NOS (NADPH-diaphorase) = test: Renal histochemistry, NADPH-diaphorase staining; format: in vivo, Sprague-Dawley rats
Protocol: as §1, §2, §4

rats = test: Acute toxicity, oral, rats; settings: rats, oral route
[5] = Acute toxicity, oral, rats; settings: rat, in vivo, po

SMILES | toxicity in words [1] | vascular endothelial NOS activity level / function (renal tissue NOS) | decrease of blood BP level as compared with CyA group [2] [nmol] | histopathological findings of arteriolopathy, conclusion in words ([3]; model rats, BH4 orally administered) | arteriolopathy, result in words with significance ([3]; p<0.0001, cyclosporin 15 mg/kg/day s.c., BH4 group: plus BH4 dihydrochloride 10 mg/kg/day oral) | Percentage of the incidence of pathological findings in renal tissues: Arteriolopathy ([3]; ± SE, week 6, control group 0.00 ± 0.00, cyclosporin 15 mg/kg/day s.c., BH4 group: plus BH4 dihydrochloride 10 mg/kg/day oral) [%] | Blood pressure [4] | invasions of ED-1-positive cells (ED-1-positive cells) | NADPH-diaphorase stainability (NOS (NADPH-diaphorase); frozen renal tissues, cyclosporin 15 mg/kg/day s.c., BH4 group: plus BH4 dihydrochloride 10 mg/kg/day oral) | functions of vascular endothelial NOS (NOS (NADPH-diaphorase); renal histochemistry, cyclosporin plus oral BH4 dihydrochloride) | toxicity in words (rats) | LD50 [5] [mg/kg]
C[C@H](O)[C@H](O)C1CNc2nc(N)[nH]c(=O)c2N1 (stereo partly drawn) [(6R,S)-5,6,7,8-tetrahydrobiopterin] | only slightly toxic |  |  |  |  |  |  |  |  |  |  | 
C[C@H](O)[C@H](O)[C@H]1CNc2nc(N)[nH]c(=O)c2N1 [BH4, (6R)-L-erythro-5,6,7,8-tetrahydrobiopterin] |  | increased vascular endothelial NOS activity level | 0.002 | remarkably improved histopathological findings | significantly (p<0.0001) inhibited arteriolopathy | 36.814 ± 2.093 | kept at a normal level | decreased invasions of ED-1-positive cells | recovered the NADPH-diaphorase stainability | normalized the functions of vascular endothelial NOS | little toxicity | ≥ 2000
